Reference: US20240190855A1 (Relay Therapeutics, Inc., priority 2021, published 2024)

Target: T1, CDK2/Cyclin E complex (Homo sapiens, UniProt P24941)
T1 construct: purchased Eurofins 14-475
Assay: CDK2/Cyclin E fluorescence-based microfluidic mobility shift assay (CDK2 Biochemical Caliper Assay)
Conditions: read-out: Biochemical CDK2/CyclinE Caliper IC50
Outline: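 Microfluidic mobility-shift readout after EDTA termination measured phosphorylation of fluorescent FL Peptide 18 (1.5 uM final) in a 20 hr room-temperature reaction. Compounds were tested at 11 concentrations (3-fold).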

IC50 | Structure (SMILES)
1000 to 100000 nM | COCc1cc2c(Nc3cc([C@H]4C[C@@H](Oc5nn(C)cc5C(C)C)CO4)[nH]n3)nccn2n1 [Example 790]
1000 to 100000 nM | Cc1cc(CC(=O)Nc2cc([C@@H]3CC[C@H](NC(=O)c4ccccc4)C3)[nH]n2)on1 (single isomer, unassigned) [Example 132]
1000 to 100000 nM | COCc1cc(C(=O)Nc2cc([C@H]3C[C@H](COc4nnccc4C(C)C)C3)[nH]n2)n(C)n1 [Example 430]
≤ 100 nM | C[C@H](NC(=O)O[C@H]1CO[C@@H](c2cc(Nc3ccc4c(n3)C(C)(C)NC4=O)n[nH]2)C1)C1CC1 [Example 740]
≤ 100 nM | Cn1nc(COC(F)(F)F)cc1C(=O)Nc1ncc([C@H]2C[C@@H](OC(=O)NC3(C)CC3)CO2)s1 (single isomer, unassigned) [Example 903]
1000 to 100000 nM | COCc1cc(C(=O)Nc2cc([C@@H]3CC[C@H](Oc4cccnc4C(F)F)C3)[nH]n2)n(C)n1 (single isomer, unassigned) [Example 503]
≤ 100 nM | COCc1cc2c(Nc3cc([C@H]4C[C@@H](OC(=O)N[C@H](C)C(F)(F)F)CO4)[nH]n3)nccn2n1 [Example 720]
1000 to 100000 nM | Cc1cc(CC(=O)Nc2cn(C3CCCC3)cn2)on1 [Example 60]
100 to 250 nM | COCc1cc(C(=O)Nc2cc([C@H]3C[C@@H](COc4cn(C)nc4C(C)C)C3)[nH]n2)n(C)n1 [Example 623]
1000 to 100000 nM | Cc1cc(CC(=O)Nc2cc([C@H]3C[C@H]3COC(=O)NC(C)C)[nH]n2)on1 (single isomer, unassigned) [Example 137]
1000 to 100000 nM | COCc1cc(C(=O)Nc2cc([C@@H]3CC[C@H](Oc4cncc(C)c4)C3)[nH]n2)n(C)n1 (single isomer, unassigned) [Example 384]
≤ 100 nM | COCc1cc(C(=O)Nc2cc([C@@H]3CC[C@H](Oc4nnccc4C(F)(F)F)C3)[nH]n2)n(C)n1 (single isomer, unassigned) [Example 477]
1000 to 100000 nM | COCc1cc(C(=O)Nc2cc([C@@H]3CC[C@@H](c4ncc(C)cn4)C3)[nH]n2)n(C)n1 (single isomer, unassigned) [Example 596]
≤ 100 nM | Cc1cc(CC(=O)Nc2cc([C@H]3CC[C@@H](OC(=O)N(C(C)C)C(C)C)C3)n[nH]2)on1 [Example 147]
250 to 1000 nM | COCc1cc2c(Nc3cc([C@H]4C[C@@H](OC(=O)NC(C)(C)CN5CCOCC5)CO4)[nH]n3)nccn2n1 [Example 703]
1000 to 100000 nM | CC(C)NC(=O)O[C@@H]1CC[C@H](c2cc(Nc3ccsn3)n[nH]2)C1 (single isomer, unassigned) [Example 114]
100 to 250 nM | COCc1cc2c(Nc3cc([C@@H]4CC[C@H](Oc5cccnc5C)C4)[nH]n3)nccn2n1 (single isomer, unassigned) [Example 512]
1000 to 100000 nM | CC(C)NC(=O)N[C@H]1CC[C@@H](c2cc(Nc3ncccn3)n[nH]2)C1 (single isomer, unassigned) [Example 124]
100 to 250 nM | Cc1cc(CC(=O)Nc2cc([C@H]3CC[C@@H](OC(=O)N4CC5CC(F)(C5)C4)C3)[nH]n2)on1 [Example 664]
1000 to 100000 nM | Cc1cc(C)n2ccnc(Nc3cc(C4CCCC4)[nH]n3)c12 [Example 795]
≤ 100 nM | CC[C@H](C)NC(=O)O[C@H]1CO[C@@H](c2cc(Nc3ccc4c(n3)C(C)(C)NC4=O)n[nH]2)C1 [Example 736]
≤ 100 nM | COC12CC(NC(=O)O[C@@H]3CO[C@H](c4cc(NC(=O)c5cc(COC(F)(F)F)nn5C)n[nH]4)C3)(C1)C2 [Example 911]
≤ 100 nM | C[C@H](NC(=O)O[C@H]1CO[C@@H](c2cc(NC(=O)c3cc(COC(F)F)nn3C)n[nH]2)C1)C1CC1 [Example 772]

IC50 | Structure (SMILES)
1000 to 100000 nM | Cc1cncc(Cl)c1Nc1cc(C2CCCC2)[nH]n1 [Example 799]
250 to 1000 nM | Cc1cc(CC(=O)Nc2cc([C@@H]3CC[C@H](OC(=O)[C@@H](N)C(C)C)C3)[nH]n2)on1 (single isomer, unassigned) [Example 469]
≤ 100 nM | COCc1cc(C(=O)Nc2cc([C@@H]3CC[C@H](Oc4ncccc4C(C)C)C3)[nH]n2)n(C)n1 (single isomer, unassigned) [Example 507]
1000 to 100000 nM | COCc1cc(C(=O)Nc2cc([C@H]3CC[C@@H](c4ncc(C)cn4)C3)[nH]n2)n(C)n1 (single isomer, unassigned) [Example 592]
1000 to 100000 nM | Cc1cc(C(=O)O)c(Nc2cc(C3CCCC3)[nH]n2)nc1C [Example 874]
≤ 100 nM | COCc1cc2c(Nc3cc([C@H]4C[C@@H](OC(=O)N[C@H]5C[C@H]5C)CO4)[nH]n3)nccn2n1 [Example 775]
250 to 1000 nM | Cc1cc(CC(=O)Nc2cc([C@H]3CC[C@@H](Oc4cccnc4)C3)[nH]n2)on1 (single isomer, unassigned) [Example 339]
≤ 100 nM | COCc1cc2c(Nc3cc([C@H]4C[C@@H](OC(=O)NC5(C(F)(F)F)CC5)CO4)[nH]n3)nccn2n1 [Example 640]
250 to 1000 nM | CC(C)NC(=O)O[C@@H]1CC[C@H](c2cc(NC=O)n[nH]2)C1 (single isomer, unassigned) [Example 440]
250 to 1000 nM | c1cncc(O[C@H]2CC[C@@H](c3cc(Nc4ncnc5ncccc45)n[nH]3)C2)c1 (single isomer, unassigned) [Example 499]
1000 to 100000 nM | Cc1cc(CC(=O)Nc2cc([C@H]3C[C@@H]4C[C@@H]4C3)[nH]n2)on1 [Example 50]
1000 to 100000 nM | COCc1cc(C(=O)Nc2cc([C@@H]3CC[C@H](c4ccc(C)nn4)C3)[nH]n2)n(C)n1 (single isomer, unassigned) [Example 573]
≤ 100 nM | COCc1cc2c(Nc3cc([C@H]4C[C@@H](OC(=O)N[C@]5(C)CC5(F)F)CO4)[nH]n3)nccn2n1 (single isomer, unassigned) [Example 729]
≤ 100 nM | COCc1cc2c(Nc3cc([C@H]4C[C@@H](OC(=O)NC5(C)CCC5)CO4)[nH]n3)nccn2n1 [Example 674]
1000 to 100000 nM | Cc1cc(CC(=O)Nc2cc(N3CC[C@H]3COC(=O)NC3(C)CC3)[nH]n2)on1 [Example 52]
1000 to 100000 nM | COCc1cc(C(=O)Nc2cc([C@H]3C[C@]4(CN(CC(C)C)C(=O)N4)C3)[nH]n2)n(C)n1 [Example 515]
≤ 100 nM | COCc1cc(C(=O)Nc2cc([C@H]3CC[C@@H](Oc4nncc5cnccc45)C3)[nH]n2)n(C)n1 (single isomer, unassigned) [Example 534]
1000 to 100000 nM | COCc1cc(C(=O)Nc2cc([C@H]3C[C@H](OC)[C@@H](OC(=O)NC(C)C)C3)[nH]n2)n(C)n1 (single isomer, unassigned) [Example 567]
1000 to 100000 nM | Cc1cc(CC(=O)Nc2cc([C@H]3CC[C@H](CC(=O)O)C3)[nH]n2)on1 (single isomer, unassigned) [Example 343]
1000 to 100000 nM | COCc1cc(C(=O)Nc2cc([C@@H]3C[C@H](Oc4cnccc4C4CC4)CO3)[nH]n2)n(C)n1 (single isomer, unassigned) [Example 538]
1000 to 100000 nM | COCc1cc(C(=O)Nc2cc([C@@H]3CC[C@@H](c4cnc(C)cn4)C3)[nH]n2)n(C)n1 (single isomer, unassigned) [Example 578]
≤ 100 nM | COCc1cc(C(=O)Nc2cc([C@H]3C[C@@H](COc4[nH]ncc4C(C)(C)C)C3)[nH]n2)n(C)n1 [Example 691]
1000 to 100000 nM | Cc1cc(CC(=O)Nc2cc([C@H]3C[C@@H](CC(=O)NC(C)C)C3)[nH]n2)on1 [Example 347]
